Assays:
hERG potassium channels = hERG potassium channels (Homo sapiens, UniProt Q12809)
Experimental: CHO cells stably expressing hERG potassium channels obtained from Aviva BioSciences were used for this test.
Visual check for precipitation was conducted before testing.
The hERG QPatchHTX assay was conducted at room temperature. The whole-cell protocols, voltage protocols and application protocols were established with QPatch Assay Software 5.0 (Sophion).

K-562 cells = experiment: K-562 cytotoxicity assay, CellTiter 96 Aqueous One, 72 hours; conditions: for K-562 IC50: 72 hours, CellTiter 96, class relative to nilotinib
[1] = test system: K562 lymphoblast cell line; experiment: K562 cytotoxicity assay at RBC, Cell Titer-Glo 2.0, 72 hours; format: cell-based; conditions: class relative to nilotinib
Experimental: In this Example, experiments conducted at RBC to assess the cytotoxicity of nilotinib and compounds 14, 17, 19, 21, and 22 (i.e., test compounds) are described. All of the test compounds were kept between 4° C. to 8° C. in solid form or as solution in DMSO.
The cell line K562 was obtained from the ATCC. Test compounds were dissolved in DMSO (1 mM stock). Cell Titer-Glo® 2.0 Luminescent cell viability assay reagent was obtained from Promega. K562 lymphoblast cell line was cultured in Iscove's Modified Dulbecco's medium supplemented with 10% FBS. 100 μg/ml penicillin and 100 μg/ml streptomycin were added to all culture media. Cultures were maintained at 37° C. in a humidified atmosphere of 5% CO2 and 95% air. Test compounds in DMSO were added in a source plate. 25 nL of test compounds was delivered from the source plate to each well of the 384-well cell culture plates by Echo 550. 25 μl of culture medium containing 1000 cells for each cell line was added to the wells of the cell culture plates. Cells were incubated with test compounds at 37° C., 5% CO2 for 72 hours. 25 μl of Cell Titer Glo 2.0 reagent was added to each well. The contents were mixed on an orbital shaker for 2 minutes and incubated at room temperature for 10 minutes to stabilize luminescent signal. Luminescence was recorded by Envision 2104 Multilabel Reader (PerkinElmer). The number of viable cells in culture was determined based on quantization of the ATP present in each culture well. The IC50 values were calculated and the IC50 curves were plotted using the GraphPad Prism 4 program based on a sigmoidal dose-response equation.

PDGFRα[h] = PDGFRα[h] (Homo sapiens, UniProt P16234); experiment: biochemical
Experimental: (§1) The assays were performed at Merck-Milliore, using their standard assay protocols

cSRC = biological target: T1, cSRC (Homo sapiens, UniProt P12931); experiment: cSRC kinase assay at Merck-Milliore (standard protocol); format: biochemical
T1 construct: purchased Merck-Milliore (contract assay service)
Experimental: as §1

cKit[h] = biological target: T2, cKit[h] (Homo sapiens, UniProt P10721); experiment: cKit kinase assay at Merck-Milliore (standard protocol); format: biochemical
T2 construct: purchased Merck-Milliore (contract assay service)
Experimental: as §1

Flt1[h] = biological target: T3, Flt1[h] (Homo sapiens, UniProt P17948); experiment: Flt1 kinase assay at Merck-Milliore (standard protocol); format: biochemical
T3 construct: purchased Merck-Milliore (contract assay service)
Experimental: as §1

SMILES | hERG inhibition compared with Nilotinib (hERG potassium channels) | K-562 IC50 (K-562 cells) | K-562 IC50 (RBC) [1] | other results
Cc1ccc(C(=O)Nc2cc(-n3cnc(COC(N)=O)c3)cc(C(F)(F)F)c2)cc1Nc1nccc(-c2cccnc2)n1 [Compound 12] | less inhibiting to hERG than Nilotinib | +++ (IC50 more than 75% great than IC50 for nilotinib) | – | IC50 (K-562 cells; Homo sapiens, K562, 72 h, read-out: K-562 IC50): < 1 nM
Cc1ccc(C(=O)Nc2cc(-n3cnc(CNCC(=O)O)c3)cc(C(F)(F)F)c2)cc1Nc1nccc(-c2cccnc2)n1 [Compound 21] | – | – | − (IC50 more than 25% great than IC50 for nilotinib) | –
Cc1ccc(C(=O)Nc2cc(-n3cnc(COC(=O)C4CC4)c3)cc(C(F)(F)F)c2)cc1Nc1nccc(-c2cccnc2)n1 [Compound 11] | less inhibiting to hERG than Nilotinib | ++ (IC50 more than 25% smaller than IC50 for nilotinib) | – | –
Cc1ccc(C(=O)Nc2cc(-n3cnc(CO)c3)cc(C(F)(F)F)c2)cc1Nc1nccc(-c2cccnc2)n1 [Compound 2, N-[3-[4-(hydroxymethyl)imidazol-1-yl]-5-(trifluoromethyl)phenyl]-4-methyl-3-[[4-(3-pyridyl)pyrimidin-2-yl]amino]benzamide] | less inhibiting to hERG than Nilotinib | ++ (IC50 more than 25% smaller than IC50 for nilotinib) | – | IC50 (PDGFRα[h]): 1900 nM; IC50 (cSRC): 1300 nM; IC50 (cKit[h]): 1300 nM; IC50 (Flt1[h]): 1100 nM; hERG IC50 (μM) (hERG potassium channels): +
Cc1cn(-c2cc(NC(=O)c3ccc(C)c(Nc4nccc(-c5cccnc5)n4)c3)cc(C(F)(F)F)c2)cn1 [Compound 1, 4-methyl-N-[3-(4-methyl-1H-imidazol-1-yl)-5-(trifluoromethyl)phenyl]-3-[(4-pyridin-3-ylpyrimidin-2-yl)amino]benzamide, reference compound] | – | + | + | –
COC(=O)CNCc1cn(-c2cc(NC(=O)c3ccc(C)c(Nc4nccc(-c5cccnc5)n4)c3)cc(C(F)(F)F)c2)cn1 [Compound 22] | – | – | − (IC50 more than 25% great than IC50 for nilotinib) | –
